The target of experiment [1] is T1, Polyadenylate-binding protein 1 (Homo sapiens, UniProt P11940). The experiment can be described thus: PABP1 MLLE–PAM2 interaction inhibitors, dose response, miRNA deadenylation inhibitor project, biochemical, fluorescence polarization, Cy5-PAM2 peptide, secondary (AID 602260). In kind it is functional. The conditions noted are these: read-out: IC50_Mean.
The target of a further experiment is T2, Bcl-2-like protein 10 (Homo sapiens, UniProt Q9HD36).
T2 sequence (Q9HD36 whole entry): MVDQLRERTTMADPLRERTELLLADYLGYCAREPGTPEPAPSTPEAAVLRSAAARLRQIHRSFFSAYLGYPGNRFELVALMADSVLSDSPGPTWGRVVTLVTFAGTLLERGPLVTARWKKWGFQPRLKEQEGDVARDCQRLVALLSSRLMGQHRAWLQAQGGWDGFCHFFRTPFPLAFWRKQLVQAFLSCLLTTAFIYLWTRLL
In words: displacers of TR3 peptide from Bcl-B, primary screen, selectivity assay for Bfl-1 inhibitor project, biochemical, fluorescence polarization, FITC-TR3 peptide (AID 748).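 Further: fluorescence polarization from a fluorescein-labelled TR3 peptide binding purified Bcl-B.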 For orientation: Polarisation of emitted light reports the rotation of a fluorescent probe.

The target of experiment [2] is T1, Polyadenylate-binding protein 1. In words: PABP1 MLLE–PAM2 binding inhibitor potency, dose response, biochemical, fluorescence polarization, FITC-PAM2 peptide (AID 602259). Format: functional. The conditions noted are these: read-out: IC50_Mean.
The next experiment addresses Estrogen receptor beta (Homo sapiens, UniProt Q92731). The experiment can be described thus: ERβ–SRC-3 coactivator interaction inhibitors, confirmation, orthogonal assay, biochemical, ELISA, streptavidin-HRP readout (AID 1060). Background: An ELISA detects its analyte on a solid surface through an enzyme-linked reagent.
Experiment [3] can be described thus: A cytotoxicity screen of small molecule inhibitors of the PhoP region in Salmonella typhi identified in the primary screen. [Related pubchem assays: 1850, 1864, 1985 ]. In kind it is functional.
Experiment [4] deals with T3, Replicative DNA helicase DnaB (Mycobacterium tuberculosis, UniProt P9WMR3).
T3 sequence (P9WMR3 whole entry): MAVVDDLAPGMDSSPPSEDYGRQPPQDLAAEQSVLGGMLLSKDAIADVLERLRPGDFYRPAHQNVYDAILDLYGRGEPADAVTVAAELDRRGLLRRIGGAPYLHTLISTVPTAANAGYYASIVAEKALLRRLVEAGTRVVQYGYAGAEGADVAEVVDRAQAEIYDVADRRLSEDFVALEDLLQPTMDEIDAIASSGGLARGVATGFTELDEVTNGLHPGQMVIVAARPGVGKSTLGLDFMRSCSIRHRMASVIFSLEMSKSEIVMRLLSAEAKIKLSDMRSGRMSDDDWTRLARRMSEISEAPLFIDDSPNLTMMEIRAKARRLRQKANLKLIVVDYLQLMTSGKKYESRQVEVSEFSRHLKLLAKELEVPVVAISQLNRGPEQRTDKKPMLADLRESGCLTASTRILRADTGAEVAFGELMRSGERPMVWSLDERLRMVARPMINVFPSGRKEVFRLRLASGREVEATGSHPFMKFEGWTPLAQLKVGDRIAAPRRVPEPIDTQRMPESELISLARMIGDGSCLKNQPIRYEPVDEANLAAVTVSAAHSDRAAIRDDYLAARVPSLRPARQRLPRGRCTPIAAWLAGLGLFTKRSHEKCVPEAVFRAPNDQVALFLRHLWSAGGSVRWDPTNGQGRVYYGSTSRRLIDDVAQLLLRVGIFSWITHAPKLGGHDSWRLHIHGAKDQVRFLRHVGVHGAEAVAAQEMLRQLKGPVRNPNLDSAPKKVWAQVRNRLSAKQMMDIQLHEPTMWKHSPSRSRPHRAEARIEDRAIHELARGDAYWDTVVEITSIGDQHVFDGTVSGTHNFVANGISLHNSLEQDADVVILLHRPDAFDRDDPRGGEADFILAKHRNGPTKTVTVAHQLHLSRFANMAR
The experiment can be described thus: DnaB intein splicing inhibitors, dose response, biochemical, cell-free fluorescence (AID 449749). In kind it is functional.

The target in the next experiment is T4, Protein RecA (Mycobacterium tuberculosis, UniProt P9WHJ3).
T4 sequence (P9WHJ3 whole entry): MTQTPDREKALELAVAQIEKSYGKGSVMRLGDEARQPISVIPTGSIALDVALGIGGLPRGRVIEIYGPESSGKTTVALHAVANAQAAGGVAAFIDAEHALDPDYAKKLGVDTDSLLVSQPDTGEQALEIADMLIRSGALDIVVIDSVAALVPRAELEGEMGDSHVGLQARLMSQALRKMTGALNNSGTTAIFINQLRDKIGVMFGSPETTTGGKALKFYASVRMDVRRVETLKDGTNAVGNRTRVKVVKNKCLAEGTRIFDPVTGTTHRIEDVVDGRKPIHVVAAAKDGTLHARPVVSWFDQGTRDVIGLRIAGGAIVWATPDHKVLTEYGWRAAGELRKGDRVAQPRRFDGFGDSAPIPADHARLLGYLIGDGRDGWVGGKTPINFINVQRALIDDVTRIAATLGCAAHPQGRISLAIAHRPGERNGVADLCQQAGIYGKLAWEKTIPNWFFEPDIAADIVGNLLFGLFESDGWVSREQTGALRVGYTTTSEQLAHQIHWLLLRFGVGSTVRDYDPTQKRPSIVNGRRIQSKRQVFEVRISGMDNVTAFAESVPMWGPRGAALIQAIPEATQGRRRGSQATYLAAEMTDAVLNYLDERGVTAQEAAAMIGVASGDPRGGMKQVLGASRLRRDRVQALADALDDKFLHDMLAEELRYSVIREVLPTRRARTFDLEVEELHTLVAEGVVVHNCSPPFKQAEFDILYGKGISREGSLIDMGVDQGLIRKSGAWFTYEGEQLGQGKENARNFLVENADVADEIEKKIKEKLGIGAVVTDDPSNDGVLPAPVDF
The experiment can be described thus: Fluorescence Cell-Free Homogeneous Dose Retest to Identify Inhibitors of RecA-Intein Splicing Activity. [Related pubchem assays (depositor defined):AID2097, AID2223, AID489010, AID492950]. Format: functional.

In experiment [5] the target is Acyl-homoserine lactone acylase PvdQ (Pseudomonas aeruginosa (strain LESB58), UniProt Q9I194). The experiment can be described thus: P. aeruginosa PvdQ acylase inhibitors, dose response, biochemical, fluorescence, plate reader and imaging, cherry-picks (AID 493231).
Experiment [6] is described as follows: M. tuberculosis H37Rv growth inhibitors, H37Rv strain (AID 1626). Format: functional.
The next experiment concerns the target Tumor necrosis factor (Homo sapiens, UniProt P01375). The experiment can be described thus: TNFa-triggered NF-kB activation inhibitors, SAR follow-up, cell-based, revised (AID 2337). In kind it is functional.
Experiment [7] deals with T5, Heat shock factor protein 1 (Mus musculus, UniProt P38532).
T5 sequence (P38532 whole entry): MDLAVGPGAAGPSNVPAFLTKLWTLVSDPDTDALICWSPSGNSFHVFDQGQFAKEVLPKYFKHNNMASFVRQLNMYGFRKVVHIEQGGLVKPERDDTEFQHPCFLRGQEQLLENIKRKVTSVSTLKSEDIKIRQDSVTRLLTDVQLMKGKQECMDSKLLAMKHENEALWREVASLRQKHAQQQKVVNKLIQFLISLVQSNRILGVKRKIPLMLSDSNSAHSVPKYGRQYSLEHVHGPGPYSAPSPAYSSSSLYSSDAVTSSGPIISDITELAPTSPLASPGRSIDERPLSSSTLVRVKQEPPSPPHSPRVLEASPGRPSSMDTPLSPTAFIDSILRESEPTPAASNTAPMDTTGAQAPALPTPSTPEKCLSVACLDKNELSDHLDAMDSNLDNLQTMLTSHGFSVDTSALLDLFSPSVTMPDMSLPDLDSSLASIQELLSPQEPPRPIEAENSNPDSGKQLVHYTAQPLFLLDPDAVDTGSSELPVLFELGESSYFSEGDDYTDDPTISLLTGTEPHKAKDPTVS
In words: inhibition of MG132-induced HSE-luciferase signal, confirmation, cell-based, NIH3T3, luminescence, dose retest (AID 2382).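 Further: NIH3T3 fibroblasts with HSF1-driven luciferase reporter stressed by proteasome inhibitor MG132; luminescence from HSF1-driven luciferase expression after 8 hours of MG132 stress.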 In kind it is functional.

In experiment [8] the target is Cyclin-dependent kinase 5/CDK5 activator 1 (Homo sapiens, UniProt Q00535). The experiment can be described thus: CDK5/p35 kinase inhibitors, dose response, biochemical, cherry-picked samples, set 2 (AID 504545).
The target in experiment [9] is T6, Nucleotide-binding oligomerization domain-containing protein 1 (Homo sapiens, UniProt Q9Y239).
T6 sequence (Q9Y239 whole entry): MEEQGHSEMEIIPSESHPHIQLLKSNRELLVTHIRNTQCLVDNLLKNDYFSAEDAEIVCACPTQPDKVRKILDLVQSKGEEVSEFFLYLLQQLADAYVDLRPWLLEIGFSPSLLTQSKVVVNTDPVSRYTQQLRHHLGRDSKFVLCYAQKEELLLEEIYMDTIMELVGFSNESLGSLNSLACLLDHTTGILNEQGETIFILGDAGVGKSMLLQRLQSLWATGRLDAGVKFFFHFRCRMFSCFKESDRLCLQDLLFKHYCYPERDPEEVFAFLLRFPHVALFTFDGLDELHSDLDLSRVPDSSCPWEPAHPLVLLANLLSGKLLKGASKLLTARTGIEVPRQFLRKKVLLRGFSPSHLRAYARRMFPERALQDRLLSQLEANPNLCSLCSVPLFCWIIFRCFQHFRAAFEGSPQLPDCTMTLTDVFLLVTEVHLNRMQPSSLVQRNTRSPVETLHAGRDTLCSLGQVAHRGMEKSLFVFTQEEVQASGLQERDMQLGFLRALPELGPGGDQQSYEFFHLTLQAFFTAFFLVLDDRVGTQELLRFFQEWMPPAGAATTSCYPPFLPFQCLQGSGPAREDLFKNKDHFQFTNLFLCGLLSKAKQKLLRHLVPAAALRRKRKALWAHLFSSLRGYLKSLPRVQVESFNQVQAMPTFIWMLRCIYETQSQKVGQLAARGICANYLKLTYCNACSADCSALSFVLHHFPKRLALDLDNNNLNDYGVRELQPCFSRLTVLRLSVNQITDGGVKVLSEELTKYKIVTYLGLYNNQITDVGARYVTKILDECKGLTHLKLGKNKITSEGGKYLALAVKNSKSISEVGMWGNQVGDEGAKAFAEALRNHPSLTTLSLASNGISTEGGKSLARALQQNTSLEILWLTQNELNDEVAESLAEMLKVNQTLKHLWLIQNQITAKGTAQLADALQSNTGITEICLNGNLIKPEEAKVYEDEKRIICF
The experiment can be described thus: NOD1 signaling inhibitors, SAR follow-up, revised (AID 2333). Format: functional.

For experiment [10], the target named is Peroxisome proliferator-activated receptor gamma/Nuclear receptor coactivator 1 (Homo sapiens, UniProt P37231). Format: functional.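 Further: agonist potency as compounds enhance coactivator SRC-1 recruitment to PPARgamma.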
Experiment [11] has as its target Peroxisome proliferator-activated receptor gamma/Nuclear receptor coactivator 2 (Homo sapiens, UniProt P37231). In kind it is functional.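 Further: agonist potency for raising coactivator recruitment to the receptor.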
For experiment [12], the target named is Peroxisome proliferator-activated receptor gamma/Nuclear receptor corepressor 2 (Homo sapiens, UniProt P37231+Q9Y618). Format: functional.
For experiment [13], the target named is Peroxisome proliferator-activated receptor gamma/Nuclear receptor coactivator 3 (Homo sapiens, UniProt P37231). In kind it is functional.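 Further: agonist potency for raising coactivator recruitment to the receptor.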
Experiment [14] addresses Photoreceptor-specific nuclear receptor (Homo sapiens, UniProt Q9Y5X4). In kind it is functional.
The target of experiment [15] is T7, Small ubiquitin-related modifier 1 (Homo sapiens, UniProt P63165). The experiment can be described thus: inhibitors of SUMO1 peptide binding, dose response, biochemical, fluorescence polarization, uHTS hits (AID 624382). Format: functional. The conditions noted are these: read-out: IC50_Mean.
For experiment [16], the target named is T7, Small ubiquitin-related modifier 1. In words: inhibitors of SUMO1 partner interactions, dose response, biochemical, FRET (AID 624383). In kind it is functional. The conditions noted are these: read-out: IC50_Mean.

Molecules are shown by their SMILES. Active and inactive are the calls of the source.

T1 sequence (P11940 whole entry): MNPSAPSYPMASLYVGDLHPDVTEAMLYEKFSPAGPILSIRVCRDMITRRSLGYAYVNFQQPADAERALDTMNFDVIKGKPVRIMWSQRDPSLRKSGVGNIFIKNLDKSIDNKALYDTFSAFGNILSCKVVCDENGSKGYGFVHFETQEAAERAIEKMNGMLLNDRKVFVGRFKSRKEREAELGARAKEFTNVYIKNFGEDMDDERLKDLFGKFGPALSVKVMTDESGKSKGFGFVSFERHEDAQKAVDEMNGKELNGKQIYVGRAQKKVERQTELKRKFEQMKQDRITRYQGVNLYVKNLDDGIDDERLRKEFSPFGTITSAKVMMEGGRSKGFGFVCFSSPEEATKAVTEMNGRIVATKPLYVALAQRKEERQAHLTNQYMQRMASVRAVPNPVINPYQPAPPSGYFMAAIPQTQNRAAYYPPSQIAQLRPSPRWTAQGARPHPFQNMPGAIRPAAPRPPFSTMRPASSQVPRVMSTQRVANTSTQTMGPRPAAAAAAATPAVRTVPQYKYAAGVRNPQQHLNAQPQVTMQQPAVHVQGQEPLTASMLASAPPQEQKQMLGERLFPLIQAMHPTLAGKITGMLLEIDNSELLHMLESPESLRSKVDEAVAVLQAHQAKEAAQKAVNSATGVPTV
Chain of Acyl-homoserine lactone acylase PvdQ (Q9I194 24-193 limits assumed): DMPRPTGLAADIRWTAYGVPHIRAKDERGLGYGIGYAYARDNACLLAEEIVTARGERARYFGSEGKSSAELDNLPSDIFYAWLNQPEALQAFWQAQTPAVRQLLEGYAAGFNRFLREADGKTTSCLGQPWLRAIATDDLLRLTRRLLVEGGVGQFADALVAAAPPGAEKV
Chain of Acyl-homoserine lactone acylase PvdQ (Q9I194 217-762 limits assumed): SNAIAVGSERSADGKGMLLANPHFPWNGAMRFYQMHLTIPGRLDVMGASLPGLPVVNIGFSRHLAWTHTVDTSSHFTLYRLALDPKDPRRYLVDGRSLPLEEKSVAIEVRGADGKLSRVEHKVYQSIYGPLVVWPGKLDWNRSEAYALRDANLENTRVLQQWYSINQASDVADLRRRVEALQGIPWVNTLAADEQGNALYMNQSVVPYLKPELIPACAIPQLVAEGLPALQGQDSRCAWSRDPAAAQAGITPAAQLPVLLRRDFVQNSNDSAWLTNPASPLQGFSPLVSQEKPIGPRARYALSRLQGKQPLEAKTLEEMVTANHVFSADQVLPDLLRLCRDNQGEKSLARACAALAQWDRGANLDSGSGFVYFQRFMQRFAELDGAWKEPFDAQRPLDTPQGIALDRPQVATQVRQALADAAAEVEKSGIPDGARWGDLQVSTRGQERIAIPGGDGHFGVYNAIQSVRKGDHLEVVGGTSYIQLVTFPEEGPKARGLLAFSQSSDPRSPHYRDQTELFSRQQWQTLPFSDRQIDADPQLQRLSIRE
T7 sequence (P63165 whole entry): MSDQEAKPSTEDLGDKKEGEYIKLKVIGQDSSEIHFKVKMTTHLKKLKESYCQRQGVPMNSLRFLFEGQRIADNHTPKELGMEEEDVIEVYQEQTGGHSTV
Chain of Cyclin-dependent kinase 5/CDK5 activator 1 (Q00535 whole entry, the tested form may be a part): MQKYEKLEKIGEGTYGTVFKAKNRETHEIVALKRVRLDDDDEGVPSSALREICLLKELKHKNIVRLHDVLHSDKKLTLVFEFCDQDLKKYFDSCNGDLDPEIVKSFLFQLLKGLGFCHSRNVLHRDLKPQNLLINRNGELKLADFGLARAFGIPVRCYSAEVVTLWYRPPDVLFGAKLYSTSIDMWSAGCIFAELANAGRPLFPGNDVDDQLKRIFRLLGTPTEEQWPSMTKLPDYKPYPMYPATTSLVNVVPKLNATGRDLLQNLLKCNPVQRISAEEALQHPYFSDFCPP
Chain of Cyclin-dependent kinase 5/CDK5 activator 1 (Q15078 whole entry, further chain, the tested form may be a part): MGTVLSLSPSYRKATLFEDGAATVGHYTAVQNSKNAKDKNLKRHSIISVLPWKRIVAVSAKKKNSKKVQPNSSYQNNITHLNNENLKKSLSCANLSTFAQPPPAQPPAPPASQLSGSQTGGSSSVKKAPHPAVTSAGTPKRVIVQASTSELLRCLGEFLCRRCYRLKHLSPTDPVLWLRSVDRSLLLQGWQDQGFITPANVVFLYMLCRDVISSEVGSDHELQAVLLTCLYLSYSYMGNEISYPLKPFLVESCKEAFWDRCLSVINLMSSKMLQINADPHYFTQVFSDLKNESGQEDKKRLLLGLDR
Chain of Peroxisome proliferator-activated receptor gamma/Nuclear receptor coactivator 1 (P37231 whole entry): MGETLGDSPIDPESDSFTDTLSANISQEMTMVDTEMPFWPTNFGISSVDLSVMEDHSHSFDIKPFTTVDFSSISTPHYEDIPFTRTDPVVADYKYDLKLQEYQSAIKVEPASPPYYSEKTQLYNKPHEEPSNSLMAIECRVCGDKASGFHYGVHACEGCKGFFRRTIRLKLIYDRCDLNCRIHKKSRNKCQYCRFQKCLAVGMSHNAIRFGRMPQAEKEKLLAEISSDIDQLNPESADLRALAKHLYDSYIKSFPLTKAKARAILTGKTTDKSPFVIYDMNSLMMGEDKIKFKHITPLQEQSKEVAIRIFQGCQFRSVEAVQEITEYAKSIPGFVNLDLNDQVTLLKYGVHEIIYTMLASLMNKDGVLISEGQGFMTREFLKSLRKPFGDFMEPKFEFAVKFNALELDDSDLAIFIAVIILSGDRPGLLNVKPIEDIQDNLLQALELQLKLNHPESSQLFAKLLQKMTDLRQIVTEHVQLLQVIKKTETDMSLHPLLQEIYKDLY
Chain of Peroxisome proliferator-activated receptor gamma/Nuclear receptor coactivator 1 (Q15788 whole entry, further chain): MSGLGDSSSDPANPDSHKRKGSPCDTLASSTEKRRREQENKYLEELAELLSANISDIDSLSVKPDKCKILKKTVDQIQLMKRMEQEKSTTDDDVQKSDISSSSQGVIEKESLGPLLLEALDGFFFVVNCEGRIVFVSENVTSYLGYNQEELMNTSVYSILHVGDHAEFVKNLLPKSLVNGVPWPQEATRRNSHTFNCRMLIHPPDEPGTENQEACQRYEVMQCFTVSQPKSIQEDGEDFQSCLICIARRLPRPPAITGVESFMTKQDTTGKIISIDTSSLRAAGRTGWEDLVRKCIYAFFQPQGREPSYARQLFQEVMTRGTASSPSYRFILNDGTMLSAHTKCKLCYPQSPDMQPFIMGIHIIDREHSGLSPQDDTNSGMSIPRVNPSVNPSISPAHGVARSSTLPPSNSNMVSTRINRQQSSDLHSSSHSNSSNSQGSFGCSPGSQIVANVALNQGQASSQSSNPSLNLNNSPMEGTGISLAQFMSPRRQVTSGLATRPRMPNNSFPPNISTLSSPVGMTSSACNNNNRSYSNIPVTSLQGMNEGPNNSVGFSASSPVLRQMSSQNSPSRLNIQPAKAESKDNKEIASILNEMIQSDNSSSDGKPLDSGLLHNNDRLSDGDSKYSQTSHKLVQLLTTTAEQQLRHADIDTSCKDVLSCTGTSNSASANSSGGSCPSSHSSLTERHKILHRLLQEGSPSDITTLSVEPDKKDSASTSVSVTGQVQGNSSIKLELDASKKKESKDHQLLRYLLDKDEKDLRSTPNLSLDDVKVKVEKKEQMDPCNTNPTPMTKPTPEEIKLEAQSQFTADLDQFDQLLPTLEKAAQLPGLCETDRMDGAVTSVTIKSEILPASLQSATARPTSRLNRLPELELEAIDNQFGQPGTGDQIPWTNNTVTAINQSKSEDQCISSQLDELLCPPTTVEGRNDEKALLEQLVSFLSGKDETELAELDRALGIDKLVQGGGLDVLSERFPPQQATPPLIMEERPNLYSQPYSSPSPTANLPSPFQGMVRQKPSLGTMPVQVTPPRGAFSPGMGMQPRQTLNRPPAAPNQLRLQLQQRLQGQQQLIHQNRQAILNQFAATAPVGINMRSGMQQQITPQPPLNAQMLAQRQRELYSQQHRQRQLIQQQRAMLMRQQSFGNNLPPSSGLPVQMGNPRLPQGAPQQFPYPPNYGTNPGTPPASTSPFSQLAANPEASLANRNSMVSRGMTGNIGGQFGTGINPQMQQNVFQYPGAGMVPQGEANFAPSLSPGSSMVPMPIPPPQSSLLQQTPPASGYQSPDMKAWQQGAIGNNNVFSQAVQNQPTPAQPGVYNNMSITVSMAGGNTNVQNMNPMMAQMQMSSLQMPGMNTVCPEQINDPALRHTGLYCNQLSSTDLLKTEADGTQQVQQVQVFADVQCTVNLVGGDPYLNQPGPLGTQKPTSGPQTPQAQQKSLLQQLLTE
Chain of Estrogen receptor beta (Q92731 whole entry): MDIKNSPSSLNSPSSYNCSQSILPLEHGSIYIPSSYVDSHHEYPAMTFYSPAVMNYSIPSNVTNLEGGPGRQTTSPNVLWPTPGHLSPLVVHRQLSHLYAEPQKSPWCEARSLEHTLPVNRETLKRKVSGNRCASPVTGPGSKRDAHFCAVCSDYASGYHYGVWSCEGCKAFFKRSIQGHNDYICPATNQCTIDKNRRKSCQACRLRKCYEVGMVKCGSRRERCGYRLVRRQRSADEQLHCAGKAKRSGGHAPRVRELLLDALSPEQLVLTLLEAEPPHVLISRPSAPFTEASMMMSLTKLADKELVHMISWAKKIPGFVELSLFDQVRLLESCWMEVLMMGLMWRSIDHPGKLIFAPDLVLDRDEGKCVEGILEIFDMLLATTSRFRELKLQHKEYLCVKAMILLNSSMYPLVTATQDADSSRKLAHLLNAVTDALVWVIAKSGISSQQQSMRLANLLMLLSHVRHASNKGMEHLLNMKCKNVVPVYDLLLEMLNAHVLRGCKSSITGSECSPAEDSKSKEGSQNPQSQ
Chain of Photoreceptor-specific nuclear receptor (Q9Y5X4 whole entry): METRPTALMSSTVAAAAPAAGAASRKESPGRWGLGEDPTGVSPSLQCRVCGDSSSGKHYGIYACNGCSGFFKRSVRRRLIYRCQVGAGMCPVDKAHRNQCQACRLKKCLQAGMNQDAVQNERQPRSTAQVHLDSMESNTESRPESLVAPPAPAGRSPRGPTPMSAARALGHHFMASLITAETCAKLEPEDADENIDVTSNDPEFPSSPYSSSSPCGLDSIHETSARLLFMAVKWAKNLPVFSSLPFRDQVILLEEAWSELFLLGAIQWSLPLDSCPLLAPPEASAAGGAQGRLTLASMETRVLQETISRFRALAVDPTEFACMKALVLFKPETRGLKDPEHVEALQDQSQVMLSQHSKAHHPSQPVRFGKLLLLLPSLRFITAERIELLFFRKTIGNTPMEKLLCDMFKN

As to `Cc1cc(C)c2cc3c(ccn3C3OC[C@H](O)[C@H](O)[C@H]3O)cc2n1` (stereo partly drawn), the IC50 in experiment [1] is > 66 µM (inactive); on Bcl-2-like protein 10, > 6.25 µM (inactive); in [2], 57.6 µM (inactive); against Estrogen receptor beta, < 0.023 µM (not active).
As a reminder, the EC50 is the concentration at which the effect is half-maximal. The term AC50 denotes the concentration giving half of the maximal activity seen. With `COc1ccc(C2C(C#N)=C(N)Oc3[nH]nc(C)c32)cc1CSc1ccccn1` (stereo not drawn), the EC50 is > 50 µM (active) in experiment [3] and 6.32 µM (active) on Protein RecA. The AC50 in experiment [4] is 9.71 µM (active).
In the case of `O=[N+]([O-])c1ccc(N2CCCCC2)cc1`, the AC50 in experiment [5] is 6.52 µM (active).
On to `CC(C)Cc1c(O)nc(SCC(=O)Nc2ccc3c(c2)CCC3)nc1O`, for which the 50% effective concentration (EC50) in experiment [3] is > 50 µM (active). Besides, the IC50 in experiment [6] is > 100 µM (active).
For the molecule `O=C1C2C(C(=O)N1Cc1ccco1)C1C=CC2C12CC2` (stereo not drawn), the concentration at half-maximal activity (AC50) in experiment [5] is 2.42 µM (active).
On to `Cc1ccc(C(=O)ON=C(N)c2ccccn2)c(C)c1`, for which the IC50 at Tumor necrosis factor was 0.0706 µM (active); in [9], 0.772 µM (active). Further, the EC50 in experiment [7] is < 0.16 µM (active). Besides, the half-maximal activity concentration (AC50) in experiment [8] is 11.8 µM (active).
With `CCc1cc2cc3c(cc2nc1SCC(=O)Nc1cc(C)on1)OCO3`, the EC50 in experiment [10], in experiment [11] and in experiment [13] was > 79.4 µM (not active) each time. For the same molecule, the IC50 in experiment [12] was 1.54 µM (active); in experiment [14], > 39.8 µM (not active).
Turning to `CC(C)[C@H](CO)Nc1nc(Nc2ccc(Cl)c(C(=O)O)c2)c2ncn(C(C)C)c2n1`, the AC50 in experiment [8] was 9.44 µM (active). Moreover, the values for the IC50 in experiment [15] and in experiment [16] were > 66.6 µM (inactive) and 21.4 µM (inactive), respectively.

The values above are taken from ChEMBL document CHEMBL1201862, “PubChem BioAssay data set” (2004).
